Reference: US5856347A, “Antibacterial preparation or bactericide comprising 2-aminothiazole derivative and/or salt thereof” (Hisamitsu Pharmaceutical Co., Inc., priority 1994, dated 1999)

Legend:
Format in all cases: cell-based
[1] = system: Staphylococcus epidermidis; test: Acquisition of tolerance in Staphylococcus epidermidis (serial passages)
Experimental: (§1) Acquisition of Tolerance in Staphylococcus aureus and Staphylococcus epidermidis
(§2) One platinum loop of each test strain on a slant culture medium was inoculated into 10 ml of a growing medium (Trypto-Soya Broth manufactured by Nussui Pharmaceutical Co., Ltd.) and cultured at 37° C. for 18 to 20 hr. The thus obtained cultures were each diluted to obtain suspensions of about 10^8 cells/ml which were later used as a bacteria suspension for inoculation.
(§3) About 10 mg of compound No. 9 were weighed out and dissolved in such an amount of DMSO as to obtain a solution having a concentration of 12.8 mg/ml, after which the solution so obtained was subjected to stepwise two-fold dilutions with DMSO (12.8 to 0.1 mg/ml).
(§4) Separately, about 400 mg of Gentamicin sulfate (GM) were weighed and dissolved in distilled water to obtain a solution having a concentration of 409.6 mg/ml, after which the solution so obtained was subjected to stepwise two-fold dilutions with distilled water to prepare control medicinal solutions for comparison (409.6 to 0.1 mg/ml).
(§5) Each of the sample solutions thus obtained by the stepwise dilutions was added to a liquid medium (Trypto-Soya Broth manufactured by Nussui Pharmaceutical Co., Ltd.) in an amount of 0.01 volume thereof.
(§6) Each of the bacteria suspensions for inoculation was added to each of the sample-containing liquid media so prepared in an amount of 0.01. volume (about 10^6 cells/ml) of the liquid medium, and the bacteria were cultured at 37° C. for 2 to 4 days. Thereafter, the growth of bacteria was observed.

Staphylococcus aureus = test: Acquisition of tolerance in Staphylococcus aureus (serial passages)
Experimental: as §1, §2, §3, §4, §5, §6

[2] = system: Staphylococcus epidermidis tolerant to GM; test: Antibacterial activity against GM-tolerant Staphylococcus epidermidis; settings: S. epidermidis tolerant to GM
Experimental: (§7) Antibacterial Activity Against GM-Sensitive and Tolerant Strains of Staphylococcus aureus and Staphylococcus epidermidis
as §2, with “10^7” for “10^8”
(§8) About 10 mg of compound No. 9 were weighed out and dissolved in such an amount of DMSO as to obtain a solution having a concentration of 10 mg/ml. Separately, about 400 mg of Gentamicin sulfate (GM) were weighed out and dissolved in distilled water to obtain a solution having a concentration of 409.6 mg/ml.
(§9) Each of the sample solutions thus prepared was added to a liquid medium (broth for determination of sensitivity, manufactured by Nussui Pharmaceutical Co., Ltd.) to obtain a liquid medium containing compound No. 9 in a concentration of 128 μg/ml or GM in a concentration of 4096 μg/ml. Further, each sample-containing medium so obtained was subjected to stepwise two-fold dilutions on a microplate with wells each containing […] of the above medium (compound No. 9: 128 to 1 μg/ml, GM: 4096 to 1 μg/ml). […]

[3] = system: Staphylococcus aureus tolerant to GM; test: Antibacterial activity against GM-tolerant Staphylococcus aureus; settings: S. aureus tolerant to GM
Experimental: as §7
as §2, with “10^7” for “10^8”
as §8, §9

[4] = system: Staphylococcus aureus: IFO 13276; test: Bactericidal activity against Staphylococcus aureus: IFO 13276 (MCC); settings: S. aureus IFO 13276, 37° C., 18 to 20 hr, bactericidal (Table 8)
Experimental: (§10) Bactericidal Activity Against Gram-Positive Bacteria
(§11) One platinum loop of each test strain on a slant culture medium was inoculated into 10 ml of each growing medium (for aerobic bacteria: Trypto-Soya Broth manufactured by Nussui Pharmaceutical Co., Ltd., for anaerobic bacteria: GAM Broth manufactured by Nussui Pharmaceutical Co., Ltd.) and cultured at 37° C. for 18 to 20 hr. The thus obtained cultures were each diluted to obtain suspensions of about 10^7 cells/ml which were later used as a bacteria suspension for inoculation.
(§12) About 10 mg of each sample were weighed out and dissolved in such an amount of DMSO (dimethylsulfoxide) as to obtain solutions having a concentration of 10 mg/ml.
(§13) The sample solutions thus prepared were each added to each liquid medium (for aerobic bacteria: broth for determination of sensitivity, manufactured by Nussui Pharmaceutical Co., Ltd., for anaerobic bacteria: GAM Broth manufactured by Nussui Pharmaceutical Co., Ltd.) to obtain sample-containing medium solutions having a concentration of 128 μg/ml. […]
(§14) 5 μl of each bacteria suspension for inoculation were placed in each of the sample-containing liquid media so prepared, and the bacteria were cultured at 37° C. for 18 to 20 hr. […] The minimum concentrations of the samples, which have been judged to kill bacteria, are expressed as MCC (Minimum Cidal Concentration) in μg/ml. […]

[5] = system: Staphylococcus aureus: IFO 13276; test: Antibacterial activity against Staphylococcus aureus: IFO 13276 (MIC, liquid dilution); settings: S. aureus IFO 13276, 37° C., 18 to 20 hr (Table 2)
Experimental: (§15) Antibacterial Activity Against Gram-positive Bacteria
(§16) One platinum loop (oese) of a test strain on a slant culture medium was inoculated into 10 ml of each growing medium (for aerobic bacteria: Trypto-Soya Broth manufactured by Nussui Pharmaceutical Co., Ltd., for anaerobic bacteria: GAM Broth manufactured by Nussui Pharmaceutical Co., Ltd.) and cultured at. 37° C. for 18 to 20 hr. The cultures thus obtained were each diluted to obtain suspensions of about 10^7 cells/ml which were later used as a bacteria suspension for inoculation.
(§17) About 10 mg of each sample were weighed out and dissolved in such an amount of DMSO (dimethylsulfoxide) as to obtain sample solutions having a concentration of 10 mg/ml.
(§18) The sample solutions thus prepared were each added to each liquid medium (for aerobic bacteria: broth for determination of sensitivity, manufactured by Nussui Pharmaceutical Co., Ltd., for anaerobic bacteria: GAM Broth manufactured by Nussui Pharmaceutical Co., Ltd.) to obtain sample-containing medium solutions having a concentration of 128 μg/ml. Further, the thus obtained solutions were each subjected to progressive or stepwise two-fold dilutions on a microplate with wells each containing […] of the above medium (until various concentrations in a range from 128 down to 0.063 μg/ml were obtained). […]

[6] = system: Escherichia coli: IFO 3972; test: Antibacterial activity against Gram-negative bacteria, Escherichia coli: IFO 3972 (MIC)
Experimental: Antibacterial Activity Against Gram-Negative Bacteria The procedure was performed in the same manner as Experiment Example 1.

[7] = system: Staphylococcus epidermidis sensitive to GM; test: Antibacterial activity against GM-sensitive Staphylococcus epidermidis; settings: S. epidermidis sensitive to GM, 37° C., 4 days
Experimental: as §7
as §2, with “10^7” for “10^8”
as §8, §9

[8] = system: Staphylococcus epidermidis: IFO 12993; test: Bactericidal activity against Staphylococcus epidermidis: IFO 12993 (MCC); settings: S. epidermidis IFO 12993, 37° C., 18 to 20 hr, bactericidal (Table 9)
Experimental: as §10, §11, §12, §13, §14

[9] = system: Staphylococcus aureus sensitive to GM; test: Antibacterial activity against GM-sensitive Staphylococcus aureus; settings: S. aureus sensitive to GM, 37° C., 4 days
Experimental: as §7
as §2, with “10^7” for “10^8”
as §8, §9

[10] = system: Propionibacterium acnes: Clinical isolated No. 3; test: Antibacterial activity against Propionibacterium acnes: Clinical isolated No. 3 (MIC); settings: Propionibacterium acnes clinical isolated No. 3, GAM Broth, 37° C., 18 to 20 hr
Experimental: as §15, §16, §17, §18

[11] = system: Propionibacterium acnes: Clinical isolated No. 3; test: Bactericidal activity against Propionibacterium acnes: Clinical isolated No. 3 (MCC); settings: P. acnes clinical isolated No. 3, 37° C., 18 to 20 hr, bactericidal (Table 9)
Experimental: as §10, §11, §12, §13, §14

[12] = system: Streptococcus pyogenes: IID 698; test: Antibacterial activity against Streptococcus pyogenes: IID 698 (MIC); settings: Streptococcus pyogenes IID 698, 37° C., 18 to 20 hr
Experimental: as §15, §16, §17, §18

[13] = system: Streptococcus agalactiae: IID 1624; test: Antibacterial activity against Streptococcus agalactiae: IID 1624 (MIC); settings: Streptococcus agalactiae IID 1624, 37° C., 18 to 20 hr
Experimental: as §15, §16, §17, §18

[14] = system: Bacillus subtilis: IFO 3134; test: Antibacterial activity against Bacillus subtilis: IFO 3134 (MIC); settings: Bacillus subtilis IFO 3134, 37° C., 18 to 20 hr
Experimental: as §15, §16, §17, §18

[15] = system: Staphylococcus epidermidis: IFO 12993; test: Antibacterial activity against Staphylococcus epidermidis: IFO 12993 (MIC); settings: Staphylococcus epidermidis IFO 12993, 37° C., 18 to 20 hr
Experimental: as §15, §16, §17, §18

COc1ccc(-c2nc(NS(=O)(=O)C(F)(F)F)sc2-c2ccccc2)cc1 [compound 9]
acquisition of tolerance ([1]; 18 passages): did not induce the tolerance until 18 passages | increase in MIC due to passages ([1]; 18 passages): neither of the strains caused a significant increase in MIC | acquisition of tolerance (Staphylococcus aureus; 10 passages): did not induce bacterial tolerance until 10 passages | increase in MIC due to passages (Staphylococcus aureus; 10 passages): neither of the strains caused a significant increase in MIC | antibacterial activity and bactericidal activity compared with GM-sensitive strains [2]: equally powerful to those against the strains sensitive to Gentamicin sulfate (GM) | antibacterial activity and bactericidal activity compared with GM-sensitive strains [3]: equally powerful to those against the strains sensitive to Gentamicin sulfate (GM)

Gentamicin sulfate [GM]
MCC (Minimum Cidal Concentration), column head prints MIC [4]: 128 µg/mL | acquisition of tolerance ([1]; 18 passages): highly induced the tolerance | MIC after passages ([1]; 18 passages in medium containing GM): about 1000 μg/ml | MIC (Minimum Inhibitory Concentration) [5]: 2 µg/mL | MIC (Minimum Inhibitory Concentration) [6]: 2 µg/mL | MIC (Minimum Inhibitory Concentration) [7]: 0.5 µg/mL | MCC (Minimum Cidal Concentration), column head prints MIC [8]: 64 µg/mL | acquisition of tolerance (Staphylococcus aureus; 10 passages): highly induced the tolerance | MIC after passages (Staphylococcus aureus; 10 passages in medium containing GM): about 1000 μg/ml | MIC (Minimum Inhibitory Concentration) [9]: 2 µg/mL | MIC (Minimum Inhibitory Concentration) ([2]; 37° C., 4 days): 1024 µg/mL | MIC (Minimum Inhibitory Concentration) [10]: 32 µg/mL | MCC (Minimum Cidal Concentration), column head prints MIC [11]: 64 µg/mL | MIC (Minimum Inhibitory Concentration) [12]: 2 µg/mL | MIC (Minimum Inhibitory Concentration) [13]: 16 µg/mL | MIC (Minimum Inhibitory Concentration) [14]: 0.25 µg/mL | MIC (Minimum Inhibitory Concentration) ([3]; 37° C., 4 days): 2048 µg/mL | MIC (Minimum Inhibitory Concentration) [15]: 0.5 µg/mL
